Assays:
endothelium-rubbed aorta = experiment: Protoporphyrin IX fluorescence in aorta of rats treated with ALA in vivo; parameters: species or system rat; conditions: single dose 60 mg/kg ALA i.p., 24 hours after treatment, vs saline-injected rats
Procedure: The rats were pretreated with 60 mg/kg ALA or with a saline vehicle (i.p.). After 24 hours they were anesthetized with 50 mg/kg sodium pentobarbital and the aorta was removed for in vitro studies. Isolated aortic rings were studied for changes in protoporphyrin IX fluorescence and force under the same conditions similar to those used for bovine pulmonary arteries described above, except that 1 gram of passive force was used.

[1] = tested on: VASP serine-239 phosphorylation (cGMP-dependent protein kinase activation); experiment: Western blot of VASP serine-239 phosphorylation in BPA; format: cell-based, bovine; conditions: organ culture with 100 μM ALA
Procedure: (§1) Rings from studies on contractile function were snap-frozen in liquid nitrogen, crushed and homogenized in lysis buffer (50 mM Tris-HCl, pH 8.0, 150 mM NaCl, 1 mM EDTA, 1% Triton X-100, 0.5% sodium deoxycholate, 0.1% sodium dodecyl sulfate, 1% of a protease inhibitor cocktail (Sigma) and 1% of a phosphatase inhibitor cocktail (Sigma). The protease inhibitor cocktail included 4-(2-aminoethyl)benzenesulfonyl floride hydrocholride, aprotinin, bestatin hydrochloride, N-(trans-epoxsuccinyl)-L-leucine-4-guanidinobutylamide, leupeptine hemisulfate, pepstatin and the phosphatase inhibitor cocktail included sodium orthovandate, sodium molybdate, sodium tartarate, and imidazole. Protein concentration was determined and 30 μg of protein samples were prepared in electrophoresis sample buffer containing 3% SDS and 3% β-mercaptoethanol and were separated using a 12% gel SDS-PAGE electrophoresis. Membranes were blocked for 1 h in TBST-5% milk and incubated overnight with phospho-VASP antibodies (diluted 1:1000). Membranes were exposed to a secondary horse radish peroxidase linked antibody and visualized with an ECL kit (Amersham). The membranes were subsequently exposed to X-OMAT autoradiography paper (Kodak). Membranes were stripped with TRIS-HCl buffer with 100 mM β-mercaptoethanol at 50° C. for 30 min. Membranes were subsequently washed, blocked and detected for total VASP. Each measurement of phosphorylated VASP was normalized to the total level of VASP, and data are reported as the percent of the levels of phosphorylated VASP seen in control arteries not exposed to agents which modulate the activity of sGC. Expression of sGC was detected with β-sGC subunit antibodies (diluted 1:2000), employing anti-rabbit secondary antibodies, and a protocol where membranes were blocked for 2 h. After analyzing for sGC protein expression, blots were stripped and re-probed for the detection of α-actin protein levels, which were used for normalization of data for statistical analysis based on protein loading.

[2] = tested on: bovine pulmonary arteries (BPA); experiment: Protoporphyrin IX-associated tissue fluorescence in organ cultured BPA rings; format: cell-based; conditions: for BPA fluorescence: 100 μM ALA without or with 100 μM deferoxamine
Procedure: (§2) Organoid Culture Isolated Arteries for Heme Modulation. Intralobar BPA were isolated from slaughterhouse-derived bovine calf lungs, cleaned from surrounding tissue, and placed in 37° C. Dulbecco's Modified Eagle Medium (DMEM) containing 10% fetal bovine serum, penicillin, streptomycin, and fungizone (complete media). The arteries were isolated and cut into rings ˜2 mm in diameter and width, and the endothelium was removed by gentle rubbing of the lumen. Various compounds (i.e. ALA, FeSO4(Fe), deferoxamine) were added as described in the Results to various experimental groups, and these arteries were organ cultured overnight for 24 h in complete media in a 37° C.-5% CO2 incubator. Preliminary experiments on the time course for detection protoporphyrin IX accumulation and the effects of organ culture with doses of ALA in the 10-100 μM concentration range on contractile function, and minimizing the duration of organ culture were considerations that contributed to selecting the 24 h culture period used in this study.
(§3) Determination Changes in Protoporphyrin 1× and Heme Levels. Methods for the detection of protoporphyrin IX tissue fluorescence developed for the detection in cancerous cells with tissue depths of up to several millimeters (27) were adapted for detecting changes in the endogenous levels of protoporphyrin IX in BPA rings which were organ cultured with ALA. When excited with light in the regions of 505 and 540 nm, protoporphyrin IX has an emission in the region of 635 nm. […] Increases in protoporphyrin IX were measured using an excitation wavelength of 528±20 nm and emission of 620±40 nm in intact vessels. Ring segments of approximately equal size (˜4 mm in diameter and length) were centered on the bottom of the ˜6 mm diameter wells of a 96 well microplate with 200 μl of Krebs containing with 10 mM Hepes buffer (pH 7.4), and the fluorescence was measured from the bottom surface of the plate using BIOTEK fluorescent microplate reader (Model FLx800i). Data are reported in the arbitrary fluorescence units measured (AU), after subtraction of the low levels of background fluorescence observed in the absence of BPA.

[3] = tested on: bovine pulmonary arteries (BPA); experiment: Isometric force generation to serotonin (5-HT) in organ cultured BPA rings; format: cell-based; conditions: 24 h organ culture
Procedure: as §2
Studies on the Regulation of Contractile Function. Following the overnight incubation, arterial rings were mounted on wire hooks attached to Grass (FT03) force displacement transducers for measurement of changes in isometric force. Tension was adjusted to 5 g, which is the optimal passive force for maximal contraction. Changes in force were recorded on a Grass polygraph (model 7), while vessels were incubated in 10-ml baths (Metro Scientific), which were individually thermostated (37° C.) in Krebs buffer gassed with 21% O2-5% CO2 (balance N2) in the absence of compounds used to modulate BPA protoporphyrin IX levels. Arteries were incubated for 1 h during which passive tension was adjusted to maintain 5 grams. The vessels were then depolarized with Krebs containing 123 mM KCl (High K^+) in place of NaCl, followed by re-equilibration with Krebs, prior to exposure to the experimental protocols. Following the wash with Krebs buffer after the High K^+ treatment, and a 30 min equilibration, BPA were then contracted with serotonin (5-HT) in a dose dependent manner to determine the response to this contractile agent. In some experiments, BPA were pretreated with the sGC inhibitor, 10 μM ODQ, for 15 min before contraction with serotonin. The effects of ODQ on relaxation to NO was determined by first contracting organ cultured control and ODQ-treated BPA with 1 μM 5-HT (after the initial exposure to increasing concentrations of 5-HT and a 30 min equilibration in Krebs).

bovine bronchi = experiment: Protoporphyrin IX fluorescence in organ cultured bovine bronchi; format: cell-based; conditions: organ culture with 0.1 mM ALA
Description: as §3
Bovine bronchi were isolated from the same lungs used for pulmonary arteries, and studied for changes in protoporphyrin IX fluorescence and force under the same conditions as bovine pulmonary arteries described above. […]

sGC = experiment: Western blot of sGC expression in BPA; format: cell-based, bovine; conditions: organ culture with 100 μM ALA, Western analysis
Procedure: as §1, with “The membranes were subsequently exposed to X-OMAT autoradiography paper (Kodak). Membranes were stripped with TRIS-HCl buffer with 100 mM β-mercaptoethanol at 50° C. for 30 min.” left out, “Each measurement of phosphorylated VASP was normalized to the total level of VASP, and data are reported as the percent of the levels of phosphorylated VASP seen in control arteries not exposed to agents which modulate the activity of sGC.” left out, “After analyzing for sGC protein expression, blots were stripped and re-probed for the detection of α-actin protein levels, which were used for normalization of data for statistical analysis based on protein loading.” left out

SMILES: NCC(=O)CCC(=O)O [ALA, δ-aminolevulinic acid]
- protoporphyrin IX fluorescence in endothelium-rubbed aorta (endothelium-rubbed aorta): increased in protoporphyrin IX fluorescence
- VASP serine-239 phosphorylation [1]: increase in VASP phosphorylation
- fluorescence potentially originating from protoporphyrin IX ([2]; 10 μM ALA, 24 h organ culture): did not cause a detectable increase in fluorescence
- increase in fluorescence over the background fluorescence of BPA ([2]; 50 μM and 100 μM ALA, 24 h organ culture): up to 2 fold
- BPA fluorescence ([2]; after 8 h of organ culture): 1015±79 AU
- BPA fluorescence ([2]; after 24 h of organ culture): 1658±122 AU
- concentration of protoporphyrin IX solution producing similar fluorescence ([2]; increase in BPA fluorescence caused by 100 μM ALA): ~3 µM
- tissue fluorescence potentially originating from protoporphyrin IX ([2]; organ culture with 100 μM ALA, after 16 and 24 h of incubation): increase in tissue fluorescence
- force generation to 5-HT ([3]; 10 μM ALA, appeared to depress force at higher doses of 5-HT): did not reach statistical significance
- decrease in force generation to 5-HT ([3]; 50 μM and 100 μM ALA): 50-90%
- force generation to 5-HT ([3]; 100 μM ALA, 0.1-10 μM 5-HT in the absence of ALA): markedly inhibit force generation
- protoporphyrin IX fluorescence (bovine bronchi): time-dependent increase in protoporphyrin IX fluorescence
- levels of sGC relative to BPA organ cultured in the absence of ALA (sGC): 71±19%
